According to ChEMBL document CHEMBL1156476, “Inhibition of mammalian target of rapamycin signaling by 2-(morpholin-1-yl)pyrimido[2,1-alpha]isoquinolin-4-one” (J Biol Chem, 2007):
The source made the active and inactive calls. The calls are words filed in the database; no cut-off is given here.

Legend:
[1] = target: T1, Serine/threonine-protein kinase mTOR (Homo sapiens, UniProt P42345); assay: Inhibition of mTOR
[2] = target: T1, Serine/threonine-protein kinase mTOR; assay: Inhibition of PDGF-activated mTOR signaling in rat-1 fibroblasts assessed as Akt Ser473 site phosphorylation by Western blot
[3] = target: T1, Serine/threonine-protein kinase mTOR; assay: Inhibition of PDGF-activated mTOR signaling in rat-1 fibroblasts assessed as S6K1 Thr389 site phosphorylation by Western blot
[4] = target: RAC-alpha serine/threonine-protein kinase (Mus musculus) (UniProt P31750); assay: Increase in Akt phosphorylation in TSC1-deficient mouse embryo fibroblasts assessed as Ser 473 phosphorylation at 100 nM after 24 hrs by Western blot
[5] = Antiproliferative activity against TSC1-deficient mouse embryo fibroblasts assessed as decrease in cell number at 100 nM after 2 day relative to control; format: functional, Fibroblast; design: scale not given: the % may be the effect or the level left
[6] = target: Casein kinase II subunit alpha (Homo sapiens) (UniProt P68400); assay: Inhibition of CSNK2A1 at 5 uM
[7] = target: PI3-kinase p110-alpha/p85-alpha (Homo sapiens, UniProt P42336); assay: Inhibition of p110alpha/p85-alpha PI3K; format: protein-complex assay
[8] = target: T1, Serine/threonine-protein kinase mTOR; assay: Inhibition of mTOR kinase activity in epitope-tagged AU1 immunoprecipitates expressed in human 293F cells at 5 uM by autoradiography; format: cell-based
[9] = target: T1, Serine/threonine-protein kinase mTOR; assay: Inhibition of mTOR kinase activity in raptor immunoprecipitates expressed in human 293F cells at 10 uM by autoradiography; format: cell-based
[10] = target: Phosphatidylinositol 4,5-bisphosphate 3-kinase catalytic subunit alpha isoform (Homo sapiens) (UniProt P42336); assay: Inhibition of p110-alpha PI3K assessed as p85alpha autophosphorylation at 25 uM by autoradiography
Sequence of Phosphatidylinositol 4,5-bisphosphate 3-kinase catalytic subunit alpha isoform (Homo sapiens) (P42336 whole entry, canonical isoform): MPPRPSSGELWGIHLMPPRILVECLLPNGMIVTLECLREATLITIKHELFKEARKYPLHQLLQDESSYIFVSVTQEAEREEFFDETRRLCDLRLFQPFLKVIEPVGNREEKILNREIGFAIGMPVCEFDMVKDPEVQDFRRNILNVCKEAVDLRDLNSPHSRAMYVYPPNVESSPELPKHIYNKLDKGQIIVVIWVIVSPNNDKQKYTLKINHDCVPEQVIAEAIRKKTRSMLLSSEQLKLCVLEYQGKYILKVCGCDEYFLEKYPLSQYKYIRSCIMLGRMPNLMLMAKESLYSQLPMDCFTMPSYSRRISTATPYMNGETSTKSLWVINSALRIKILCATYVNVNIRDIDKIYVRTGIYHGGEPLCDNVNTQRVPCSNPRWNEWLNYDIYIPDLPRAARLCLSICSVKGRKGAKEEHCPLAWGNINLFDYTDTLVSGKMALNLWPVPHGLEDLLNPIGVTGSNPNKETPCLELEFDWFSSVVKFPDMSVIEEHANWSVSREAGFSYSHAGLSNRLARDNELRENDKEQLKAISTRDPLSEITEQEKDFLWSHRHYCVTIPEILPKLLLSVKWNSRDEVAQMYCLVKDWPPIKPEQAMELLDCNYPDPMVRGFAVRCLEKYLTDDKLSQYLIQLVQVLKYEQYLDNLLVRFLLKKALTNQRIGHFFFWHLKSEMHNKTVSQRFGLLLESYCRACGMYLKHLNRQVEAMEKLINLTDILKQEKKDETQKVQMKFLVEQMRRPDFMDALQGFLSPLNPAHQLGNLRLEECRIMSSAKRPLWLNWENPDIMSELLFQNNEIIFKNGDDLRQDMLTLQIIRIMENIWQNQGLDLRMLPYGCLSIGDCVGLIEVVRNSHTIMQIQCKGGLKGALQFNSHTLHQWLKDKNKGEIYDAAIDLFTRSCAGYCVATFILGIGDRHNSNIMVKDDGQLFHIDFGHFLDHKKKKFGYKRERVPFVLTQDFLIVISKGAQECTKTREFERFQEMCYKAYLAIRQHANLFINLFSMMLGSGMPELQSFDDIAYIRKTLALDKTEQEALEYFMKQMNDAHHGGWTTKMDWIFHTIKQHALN

[11] = target: Tyrosine-protein kinase ABL1 (Homo sapiens) (UniProt P00519); assay: Inhibition of ABL1 at 5 uM
Sequence of Tyrosine-protein kinase ABL1 (Homo sapiens) (P00519 whole entry): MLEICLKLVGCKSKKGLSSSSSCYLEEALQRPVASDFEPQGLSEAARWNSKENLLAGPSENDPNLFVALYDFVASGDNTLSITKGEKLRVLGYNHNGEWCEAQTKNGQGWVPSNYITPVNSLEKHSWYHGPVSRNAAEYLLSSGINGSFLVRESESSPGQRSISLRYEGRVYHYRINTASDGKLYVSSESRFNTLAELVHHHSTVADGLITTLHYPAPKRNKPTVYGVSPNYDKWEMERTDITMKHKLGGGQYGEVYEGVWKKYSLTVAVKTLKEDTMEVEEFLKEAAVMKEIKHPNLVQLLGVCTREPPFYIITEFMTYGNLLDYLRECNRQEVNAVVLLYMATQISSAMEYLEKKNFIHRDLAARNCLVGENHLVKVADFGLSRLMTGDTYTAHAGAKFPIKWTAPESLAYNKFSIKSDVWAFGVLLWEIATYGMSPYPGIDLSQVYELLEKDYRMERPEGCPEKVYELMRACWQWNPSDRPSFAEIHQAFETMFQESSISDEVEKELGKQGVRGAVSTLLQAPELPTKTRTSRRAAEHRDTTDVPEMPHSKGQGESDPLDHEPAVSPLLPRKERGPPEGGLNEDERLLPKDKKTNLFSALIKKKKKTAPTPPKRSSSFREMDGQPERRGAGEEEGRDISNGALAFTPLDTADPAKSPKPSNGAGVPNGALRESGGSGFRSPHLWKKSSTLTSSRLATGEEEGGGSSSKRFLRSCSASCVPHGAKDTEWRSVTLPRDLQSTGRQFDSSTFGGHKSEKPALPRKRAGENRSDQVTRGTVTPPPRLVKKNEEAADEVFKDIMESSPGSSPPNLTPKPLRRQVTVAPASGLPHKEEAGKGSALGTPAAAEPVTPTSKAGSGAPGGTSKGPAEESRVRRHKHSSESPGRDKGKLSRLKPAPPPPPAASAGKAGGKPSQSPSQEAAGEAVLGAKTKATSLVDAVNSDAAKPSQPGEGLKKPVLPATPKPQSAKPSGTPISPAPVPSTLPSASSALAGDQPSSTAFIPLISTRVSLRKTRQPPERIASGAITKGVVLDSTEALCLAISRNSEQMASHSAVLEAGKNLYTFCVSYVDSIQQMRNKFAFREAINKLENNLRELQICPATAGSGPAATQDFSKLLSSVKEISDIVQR

[12] = target: RAC-alpha serine/threonine-protein kinase (Homo sapiens) (UniProt P31749); assay: Inhibition of AKT1 at 5 uM
[13] = target: Tyrosine-protein kinase BTK (Homo sapiens) (UniProt Q06187); assay: Inhibition of BTK at 5 uM
[14] = target: Cyclin-dependent kinase 1/cyclin B1 (Homo sapiens) (UniProt P06493+P14635); assay: Inhibition of CDK1/Cyclin B at 5 uM; format: protein-complex assay
[15] = target: Serine/threonine-protein kinase Chk1 (Homo sapiens) (UniProt O14757); assay: Inhibition of CHEK1 at 5 uM
[16] = target: Casein kinase I isoform gamma-2 (Homo sapiens) (UniProt P78368); assay: Inhibition of CSNK1G2 at 5 uM
[17] = target: Dual specificity tyrosine-phosphorylation-regulated kinase 3 (Homo sapiens) (UniProt O43781); assay: Inhibition of DYRK3 at 5 uM
[18] = target: Epidermal growth factor receptor (Homo sapiens) (UniProt P00533); assay: Inhibition of EGFR at 5 uM
[19] = target: Receptor-type tyrosine-protein kinase FLT3 (Homo sapiens) (UniProt P36888); assay: Inhibition of FLT3 at 5 uM
[20] = target: Glycogen synthase kinase-3 beta (Homo sapiens) (UniProt P49841); assay: Inhibition of GSK3B at 5 uM
[21] = target: Insulin-like growth factor 1 receptor (Homo sapiens) (UniProt P08069); assay: Inhibition of IGF1R at 5 uM
[22] = target: Insulin receptor (Homo sapiens) (UniProt P06213); assay: Inhibition of INSR at 5 uM
[23] = target: Interleukin-1 receptor-associated kinase 4 (Homo sapiens) (UniProt Q9NWZ3); assay: Inhibition of IRAK4 at 5 uM
[24] = target: Tyrosine-protein kinase JAK3 (Homo sapiens) (UniProt P52333); assay: Inhibition of JAK3 at 5 uM
[25] = target: Vascular endothelial growth factor receptor 2 (Homo sapiens) (UniProt P35968); assay: Inhibition of KDR at 5 uM
[26] = target: Mast/stem cell growth factor receptor Kit (Homo sapiens) (UniProt P10721); assay: Inhibition of KIT at 5 uM
[27] = target: Tyrosine-protein kinase Lck (Homo sapiens) (UniProt P06239); assay: Inhibition of LCK at 5 uM
[28] = target: Dual specificity mitogen-activated protein kinase kinase 1 (Homo sapiens) (UniProt Q02750); assay: Inhibition of MAP2K1 at 5 uM
Sequence of Dual specificity mitogen-activated protein kinase kinase 1 (Homo sapiens) (Q02750 whole entry): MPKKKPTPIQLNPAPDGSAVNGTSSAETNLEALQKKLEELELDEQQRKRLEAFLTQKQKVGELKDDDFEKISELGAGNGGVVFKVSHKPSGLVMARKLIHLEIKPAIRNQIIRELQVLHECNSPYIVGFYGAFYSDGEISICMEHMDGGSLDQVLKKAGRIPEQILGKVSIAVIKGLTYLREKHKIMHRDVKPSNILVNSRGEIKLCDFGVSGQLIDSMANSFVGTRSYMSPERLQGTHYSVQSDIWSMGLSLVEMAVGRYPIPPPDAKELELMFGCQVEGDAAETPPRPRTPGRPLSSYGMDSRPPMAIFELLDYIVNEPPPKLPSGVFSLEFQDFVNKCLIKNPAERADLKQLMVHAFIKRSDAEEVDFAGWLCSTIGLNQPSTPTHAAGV

[29] = target: Mitogen-activated protein kinase kinase kinase kinase 4 (Homo sapiens) (UniProt O95819); assay: Inhibition of MAP4K4 at 5 uM
[30] = target: Mitogen-activated protein kinase 14 (Homo sapiens) (UniProt Q16539); assay: Inhibition of MAPK14 at 5 uM
[31] = target: MAP kinase-activated protein kinase 2 (Homo sapiens) (UniProt P49137); assay: Inhibition of MAPKAPK2 at 5 uM
[32] = target: Hepatocyte growth factor receptor (Homo sapiens) (UniProt P08581); assay: Inhibition of MET at 5 uM
[33] = target: Platelet-derived growth factor receptor beta (Homo sapiens) (UniProt P09619); assay: Inhibition of PDGFRbeta at 5 uM
Sequence of Platelet-derived growth factor receptor beta (Homo sapiens) (P09619 whole entry, canonical isoform): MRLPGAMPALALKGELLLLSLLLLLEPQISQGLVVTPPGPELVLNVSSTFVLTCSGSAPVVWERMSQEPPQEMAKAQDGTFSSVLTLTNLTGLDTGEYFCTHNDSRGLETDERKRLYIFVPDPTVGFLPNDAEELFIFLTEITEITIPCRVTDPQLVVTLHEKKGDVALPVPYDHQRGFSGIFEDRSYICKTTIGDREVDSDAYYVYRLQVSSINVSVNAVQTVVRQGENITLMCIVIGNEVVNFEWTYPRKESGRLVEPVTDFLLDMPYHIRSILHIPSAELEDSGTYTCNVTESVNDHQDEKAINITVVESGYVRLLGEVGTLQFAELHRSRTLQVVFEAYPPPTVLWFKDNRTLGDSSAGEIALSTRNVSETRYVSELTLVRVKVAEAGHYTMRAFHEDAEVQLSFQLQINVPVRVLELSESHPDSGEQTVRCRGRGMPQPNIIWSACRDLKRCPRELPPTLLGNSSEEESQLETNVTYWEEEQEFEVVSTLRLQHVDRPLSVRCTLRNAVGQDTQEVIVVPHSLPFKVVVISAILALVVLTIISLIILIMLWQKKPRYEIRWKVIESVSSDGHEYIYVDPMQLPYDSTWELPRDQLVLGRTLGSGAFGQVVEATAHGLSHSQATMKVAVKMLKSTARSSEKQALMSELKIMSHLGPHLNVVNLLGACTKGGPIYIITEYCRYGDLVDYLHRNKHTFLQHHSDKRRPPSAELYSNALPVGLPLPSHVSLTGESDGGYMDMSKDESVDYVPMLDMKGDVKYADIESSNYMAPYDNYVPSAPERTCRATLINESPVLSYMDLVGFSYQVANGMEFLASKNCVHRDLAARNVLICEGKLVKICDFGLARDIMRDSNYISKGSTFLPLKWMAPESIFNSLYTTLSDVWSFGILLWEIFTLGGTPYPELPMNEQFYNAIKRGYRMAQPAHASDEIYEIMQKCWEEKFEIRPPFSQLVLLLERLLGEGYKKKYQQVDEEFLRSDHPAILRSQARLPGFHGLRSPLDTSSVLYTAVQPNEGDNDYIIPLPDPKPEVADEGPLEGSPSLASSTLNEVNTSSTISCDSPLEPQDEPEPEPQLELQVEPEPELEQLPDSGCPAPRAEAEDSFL

[34] = target: Phosphorylase b kinase gamma catalytic chain, liver/testis isoform (Homo sapiens) (UniProt P15735); assay: Inhibition of PHKG2 at 5 uM
[35] = target: Serine/threonine-protein kinase pim-1 (Homo sapiens) (UniProt P11309); assay: Inhibition of PIM1 at 5 uM
[36] = target: Protein kinase C beta type (Homo sapiens) (UniProt P05771); assay: Inhibition of PRKCB1 at 5 uM
[37] = target: Proto-oncogene tyrosine-protein kinase receptor Ret (Homo sapiens) (UniProt P07949); assay: Inhibition of RET at 5 uM
[38] = target: Rho-associated protein kinase 1 (Homo sapiens) (UniProt Q13464); assay: Inhibition of ROCK1 at 5 uM
[39] = target: Ribosomal protein S6 kinase alpha-3 (Homo sapiens) (UniProt P51812); assay: Inhibition of RPS6KA3 at 5 uM
[40] = target: Aurora kinase A (Homo sapiens) (UniProt O14965); assay: Inhibition of STK6 at 5 uM
[41] = target: Angiopoietin-1 receptor (Homo sapiens) (UniProt Q02763); assay: Inhibition of TEK at 5 uM
[42] = target: T1, Serine/threonine-protein kinase mTOR; assay: Inhibition of PDGF-activated mTOR signaling in rat-1 fibroblasts assessed as S6K1 Thr389 site phosphorylation at 10 uM by Western blot
[43] = target: T1, Serine/threonine-protein kinase mTOR; assay: Inhibition of PDGF-activated mTOR signaling in rat-1 fibroblasts assessed as Akt Ser473 site phosphorylation at 10 uM by Western blot
[44] = tested on: Fibroblast; assay: Antiproliferative activity against TSC1-deficient mouse embryo fibroblasts assessed as decrease in cell number; format: functional, cell-based
[45] = Inhibition of PDGFR in rat-1 cells assessed as PDGF-induced Erk phosphorylation by Western blot; format: cell-based
[46] = target: Alpha-1A adrenergic receptor (Homo sapiens) (UniProt P35348); assay: Inhibition of phenylephrine-induced human adrenergic alpha1A receptor activity expressed in rat-1 fibroblasts assessed as S6K1 Thr389 site phosphorylation by Western blot
[47] = tested on: COS-7; assay: Inhibition of Akt T308D mutant transfected in african green monkey COS7 cells assessed as insulin-induced […] phosphorylation by Western blot; format: cell-based
[48] = tested on: RAC-alpha serine/threonine-protein kinase (Homo sapiens), P31749 [S473D]; assay: Inhibition of Akt S473D mutant transfected in african green monkey COS7 cells assessed as insulin-induced […] phosphorylation by Western blot; format: cell-based; settings: COS-7
[49] = target: T1, Serine/threonine-protein kinase mTOR; assay: Inhibition of IGF1-activated mTOR signaling in human M059J glioma cells assessed as S6K1 Thr389 site phosphorylation at 10 uM by Western blot; format: cell-based
[50] = target: T1, Serine/threonine-protein kinase mTOR; assay: Inhibition of IGF1-activated mTOR signaling in human M059J glioma cells assessed as Akt Ser473 site phosphorylation at 10 uM by Western blot; format: cell-based
[51] = target: Ribosomal protein S6 kinase beta-1 (Mus musculus) (UniProt Q8BSK8); assay: Blockade of S6K1 phosphorylation in TSC1-deficient mouse embryo fibroblasts assessed as Thr389 phosphorylation at 100 nM after 24 hrs by Western blot
Sequence of Ribosomal protein S6 kinase beta-1 (Mus musculus) (Q8BSK8 whole entry): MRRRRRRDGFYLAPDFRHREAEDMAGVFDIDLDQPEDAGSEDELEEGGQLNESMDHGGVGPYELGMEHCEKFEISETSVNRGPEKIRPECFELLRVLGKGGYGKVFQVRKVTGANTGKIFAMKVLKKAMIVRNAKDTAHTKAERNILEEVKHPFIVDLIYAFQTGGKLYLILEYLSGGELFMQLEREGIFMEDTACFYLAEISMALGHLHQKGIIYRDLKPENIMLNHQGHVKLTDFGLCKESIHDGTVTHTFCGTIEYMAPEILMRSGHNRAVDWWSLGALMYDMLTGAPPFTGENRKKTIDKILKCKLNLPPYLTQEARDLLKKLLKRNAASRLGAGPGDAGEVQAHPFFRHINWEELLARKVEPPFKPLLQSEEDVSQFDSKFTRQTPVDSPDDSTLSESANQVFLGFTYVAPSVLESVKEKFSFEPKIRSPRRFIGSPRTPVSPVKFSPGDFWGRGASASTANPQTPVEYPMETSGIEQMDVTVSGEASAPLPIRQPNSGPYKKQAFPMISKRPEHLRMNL

[52] = target: Ribosomal protein S6 kinase beta-1 (Mus musculus) (UniProt Q8BSK8); assay: Blockade of S6K1 phosphorylation in TSC1-deficient mouse embryo fibroblasts assessed as Thr389 phosphorylation at 10 uM after 24 hrs by Western blot
[53] = Antiproliferative activity against TSC1-deficient mouse embryo fibroblasts assessed as decrease in cell number at 10 uM after 1 day relative to control; format: functional, Fibroblast; design: scale not given: the % may be the effect or the level left
[54] = Antiproliferative activity against TSC1-deficient mouse embryo fibroblasts assessed as decrease in cell number at 10 uM after 2 day relative to control; format: functional, Fibroblast; design: scale not given: the % may be the effect or the level left
[55] = tested on: Fibroblast; assay: Induction of apoptosis in TSC1-deficient mouse embryo fibroblasts assessed as level of nucleosomes in cell cytoplasm at 100 nM after 24 hrs; format: functional, cell-based
[56] = tested on: Fibroblast; assay: Induction of apoptosis in TSC1-deficient mouse embryo fibroblasts assessed as level of nucleosomes in cell cytoplasm at 10 uM after 24 hrs; format: functional, cell-based
[57] = target: Receptor tyrosine-protein kinase erbB-2 (Homo sapiens) (UniProt P04626); assay: Inhibition of ERBB2 at 5 uM
[58] = target: Fibroblast growth factor receptor 1 (Homo sapiens) (UniProt P11362); assay: Inhibition of FGFR1 at 5 uM
Sequence of Fibroblast growth factor receptor 1 (Homo sapiens) (P11362 22-822 limits assumed): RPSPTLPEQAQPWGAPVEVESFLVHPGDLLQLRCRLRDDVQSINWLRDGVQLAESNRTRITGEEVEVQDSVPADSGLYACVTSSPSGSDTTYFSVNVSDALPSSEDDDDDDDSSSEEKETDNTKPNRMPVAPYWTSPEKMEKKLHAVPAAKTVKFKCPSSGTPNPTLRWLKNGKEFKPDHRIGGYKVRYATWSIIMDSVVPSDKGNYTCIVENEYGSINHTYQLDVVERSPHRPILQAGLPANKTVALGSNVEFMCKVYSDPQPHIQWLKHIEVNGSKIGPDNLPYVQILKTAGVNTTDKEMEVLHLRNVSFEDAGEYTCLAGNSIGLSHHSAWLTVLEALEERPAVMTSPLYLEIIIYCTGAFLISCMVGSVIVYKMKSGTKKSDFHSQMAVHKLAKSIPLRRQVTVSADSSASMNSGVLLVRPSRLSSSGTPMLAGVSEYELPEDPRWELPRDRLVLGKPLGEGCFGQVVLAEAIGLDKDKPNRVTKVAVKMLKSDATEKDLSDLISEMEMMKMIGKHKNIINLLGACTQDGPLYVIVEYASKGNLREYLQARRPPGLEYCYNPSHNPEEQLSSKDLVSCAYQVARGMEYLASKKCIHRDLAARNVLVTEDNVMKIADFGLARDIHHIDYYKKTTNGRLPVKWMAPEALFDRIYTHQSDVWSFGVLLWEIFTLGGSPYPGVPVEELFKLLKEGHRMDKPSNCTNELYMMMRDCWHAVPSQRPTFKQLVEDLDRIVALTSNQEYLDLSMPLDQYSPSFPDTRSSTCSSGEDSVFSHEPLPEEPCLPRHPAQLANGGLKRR

[59] = target: Tyrosine-protein kinase SYK (Homo sapiens) (UniProt P43405); assay: Inhibition of SYK at 5 uM
[60] = target: Mitogen-activated protein kinase 3 (Homo sapiens) (UniProt P27361); assay: Inhibition of MAPK3 at 5 uM
[61] = target: DNA-dependent protein kinase catalytic subunit (Homo sapiens, UniProt P78527); assay: Inhibition of DNA-PK

In the case of `O=c1cc(N2CCOCC2)oc2c(-c3ccccc3)cccc12` [LY-294002], the IC50 [1] is reported as 5 µM, the Activity [2] is reported as “Active” and the Activity [3] is reported as “Active”.
In the case of `CO[C@H]1C[C@@H]2CC[C@@H](C)[C@@](O)(O2)C(=O)C(=O)N2CCCC[C@H]2C(=O)O[C@H]([C@H](C)C[C@@H]2CC[C@@H](O)[C@H](OC)C2)CC(=O)[C@H](C)/C=C(\C)[C@@H](O)[C@@H](OC)C(=O)[C@H](C)C[C@H](C)/C=C/C=C/C=C/1C` [SIROLIMUS], the Activity [4] is reported as “Active” and the Activity [5] is reported as 57%.
`O=c1cc(N2CCOCC2)nc2c3ccccc3ccn12` showed an inhibition [6] of 3%, an IC50 [7] of over 100 µM and an inhibition [8] of 67%. The inhibition [9] was 78%, the Activity [10] was “inactive” and the inhibition [11] was -5%. The inhibition [12] was 5%, the inhibition [13] was 9% and the inhibition [14] was 3%. For the same molecule, the inhibition [15] was -9%, the inhibition [16] was 2% and the inhibition [17] was 5%. For the same molecule, the inhibition [18] was -3%, the inhibition [19] was 36% and the inhibition [20] was 0%. It also gave an inhibition [21] of -8%, an inhibition [22] of -3% and an inhibition [23] of -5%. It also gave an inhibition [24] of 2%, an inhibition [25] of 0% and an inhibition [26] of 13%. The inhibition [27] was -3%, the inhibition [28] was -8% and the inhibition [29] was 3%. The inhibition [30] was 17%, the inhibition [31] was 40% and the inhibition [32] was 19%. The inhibition [33] was -4%, the inhibition [34] was -6% and the inhibition [35] was 44%. It also gave an inhibition [36] of 8%, an inhibition [37] of -4% and an inhibition [38] of 13%. It also gave an inhibition [39] of 7%, an inhibition [40] of 44% and an inhibition [41] of 12%. The Activity [42] was “Active”, the Activity [43] was “Active” and the Activity [44] was “Dose-dependent effect”. The Activity [45] was “inactive”, the Activity [46] was “Active” and the Activity [47] was “inactive”. The Activity [48] was “Active”, the Activity [49] was “Active” and the Activity [50] was “Active”. For the same molecule, the Activity [51] was “Active”, the Activity [52] was “Active” and the Activity [53] was 54%. The Activity [54] was 84%, the Activity [55] was “inactive” and the Activity [56] was “Active”. The inhibition [57] was 3%, the inhibition [58] was 0% and the inhibition [59] was 14%. The inhibition [60] was -3%.
With `O=C(c1ccccc1)c1ccc(N2CCOCC2)cc1O` the IC50 [1] was over 100 µM and the IC50 [61] was 0.27 µM.
